Experimental findings from patent publication US20210308207A1, “COMPOUNDS COMPRISING A LINKER FOR INCREASING TRANSCYCLOOCTENE STABILITY” (Tagworks Pharmaceuticals B.V., priority 2018, published 2021) are described below.

Where a SMILES comes first, the peptide text is derived from it. [ ]: non-standard residue; d: D form. The star is where a group is joined. Dolaproine = CO[C@@H]([C@@H]1CCCN1)[C@@H](C)C(=O)O; Dil = CC[C@H](C)[C@H](NC)[C@@H](CC(=O)O)OC; X1 = C[C@@H](N*)[C@@H](O)c1ccccc1; NMeV = CN[C@H](C(=O)O)C(C)C

For one experiment, the system named is NIH:OVCAR-3 cells. The experiment can be described thus: Cell proliferation (MTT) assay, NIH:OVCAR-3. Type of experiment: cell-based, human. As to conditions: NIH:OVCAR-3, 72 h.
Procedure: (§1) The human colon cancer LS174T cell line was cultured in RPMI-1640 medium supplemented with 2 mM glutamine and 10% heat inactivated fetal calf serum. The human ovary carcinoma NIH:OVCAR-3 cell line was cultured in RPMI-1640 medium supplemented with 1 mM sodium pyruvate, 10 mM HEPES, 2 mM glutamine, 10 pg/mL bovine insulin and 20% fetal calf serum. The LS174T and NIH:OVCAR-3 cells were plated in 96-well plates at a 5000 cells/well density 24 h prior to the experiment. […] After 72 h incubation at 37° C., cell proliferation was assessed by an MTT assay. The proliferation assay was performed in triplicate.
Molecule `CC[C@H](C)[C@@H]([C@@H](CC(=O)N1CCC[C@H]1[C@H](OC)[C@@H](C)C(=O)N[C@H](C)[C@@H](O)c1ccccc1)OC)N(C)C(=O)[C@@H](NC(=O)[C@@H](NC)C(C)C)C(C)C` [MMAE, Monomethyl auristatin E] (H-[NMeV]V[Dil][Dolaproine]-X1) registered an EC50 of 0.039 nM.

The test system of a further experiment is LS174T cells. The experiment can be described thus: Cell proliferation (MTT) assay, LS174T. The experiment is classed as cell-based, human. As to conditions: 72 h.
Procedure: as §1
Consider `CC[C@H](C)[C@@H]([C@@H](CC(=O)N1CCC[C@H]1[C@H](OC)[C@@H](C)C(=O)N[C@H](C)[C@@H](O)c1ccccc1)OC)N(C)C(=O)[C@@H](NC(=O)[C@@H](NC)C(C)C)C(C)C` [MMAE, Monomethyl auristatin E] (H-[NMeV]V[Dil][Dolaproine]-X1), for which the EC50 turned out to be 0.277 nM.

For another experiment, the system named is AVP0458-TCO-MMAE. The experiment can be described thus: Tetrazine-induced MMAE release from diabody ADC (LC-SIM-MS, D8-MMAE standard). As to conditions: 37° C., 24 h, PBS/plasma (1/1), 10 equiv of tetrazine. How it is done: MMAE release from diabody ADC (AVP0458-TCO-MMAE) was determined by using a deuterated internal standard D8-MMAE. ADC (1.1×10^−10 moles bound MMAE) and D8-MMAE (1.1×10^−10 moles) and 10 equiv of tetrazine were incubated in 100 uL PBS/plasma (1/1) at 37° C. […] After vortexing, 10 min standing at −20° C. and centrifugation, the supernatants were separated from the protein pellets, diluted with five parts of PBS and the ratio MMAE/D8-MMAE was measured with LC-SIM-MS, affording the release yields (Table 3).
`Cc1nnc(C)nn1` [Compound 2.1, 3,6-dimethyl-1,2,4,5-tetrazine]: the “release (%), induced MMAE release from AVP0458-TCO-MMAE” value (“release (%), induced MMAE release” for short) amounted to 95 ± 0.4%.

Take `Cc1nnc(-c2ccc(NC(=O)CCCC(=O)NCCOCCOCCOCCOCCOCCOCCOCCOCCOCCOCCOCCNC(=O)CN3CCN(CC(=O)O)CCN(CC(=O)O)CCN(CC(=O)O)CC3)cn2)nn1` [Compound 3.4, 2,2′,2″-(10-(44-((6-(6-methyl-1,2,4,5-tetrazin-3-yl)pyridin-3-yl)amino)-2,40,44-trioxo-6,9,12,15,18,21,24,27,30,33,36-undecaoxa-3,39-diazatetratetracontyl)-1,4,7,10-tetraazacyclododecane-1,4,7-triyl)triacetic acid]: the “release (%), induced MMAE release” value is recorded as 47 ± 0.3%.

For the molecule `Cc1nnc(-c2ncccn2)nn1` [Compound 4.1, 3-methyl-6-(pyrimidin-2-yl)-1,2,4,5-tetrazine], the “release (%), induced MMAE release” value is listed as 69 ± 0.0%.

As to `CN(CCc1nnc(-c2ncccn2)nn1)C(=O)CCCC(=O)NC(CO)(CO)CO` [Compound 4.15], the “release (%), induced MMAE release” value is on record as 55 ± 0.4%.

Consider `Cc1nnc(-c2nccc(CNC(=O)OC(C)(C)C)n2)nn1` [Compound 4.17], for which the “release (%), induced MMAE release” value amounted to 70 ± 0.1%.

In the case of `Cc1nnc(-c2cnccn2)nn1` [Compound 4.18], the “release (%), induced MMAE release” value is 55 ± 0.8%.

As to `Cc1nnc(-c2ccncn2)nn1` [Compound 4.19], the “release (%), induced MMAE release” value amounted to 60 ± 0.1%.

Take `Cc1nnc(-c2nccnc2C)nn1` [Compound 4.20]: the “release (%), induced MMAE release” value amounted to 59 ± 0.3%.

As for `Cc1nnc(-c2nccc(C(=O)O)n2)nn1` [Compound 4.23], the “release (%), induced MMAE release” value amounted to 69 ± 0.5%.

For `Cc1nnc(-c2nccc(CNC(=O)CN(CCN(CC(=O)O)CC(=O)O)CC(=O)O)n2)nn1` [Compound 4.26], the “release (%), induced MMAE release” value came to 59 ± 0.6%.

Take `Cc1nnc(-c2nccc(CNC(=O)CCCC(=O)O)n2)nn1` [Compound 4.27]: the “release (%), induced MMAE release” value is 66 ± 0.5%.

As a reminder, the EC50 is the concentration needed to bring the measured effect to its halfway point. Read a high EC50 as lower potency in that assay.
